Measurements as given in ChEMBL document CHEMBL3507680, “University of Dundee, Gates Library screen for HepG2 cell viability”.

Experiment: Human HepG2 cell viability assay in 384 well format
Format: toxicity, cell-based
Design: dose 125 nL, time 70.5 hour; concentration not given beside the values
Conditions: HepG2 cells, read-out: Inhibition

Structure (SMILES) | cytotoxicity at 70.5 h [%]
O=c1c2sccc2nc2n1CCN(Cc1cccs1)CC2 | -18.8
Cc1cc2c(=O)n3c(nc2s1)CCN(C(=O)c1cnn(C)c1C)CC3 | -14.8
CCS(=O)(=O)N1CCC(c2cc3n(n2)[C@@H](C(F)(F)F)C[C@@H](C)N3)CC1 | -17.1
Cc1ccc(S(=O)(=O)N2C[C@H]3C[C@H](NC(=O)c4ccn(C)n4)[C@H]3C2)cc1 | 1.44
Cc1ccc(-c2cc(N)c(=O)n(CC(=O)NC3CCCCC3)n2)s1 | -17.9
O=C(O)C1(Cc2cccc(-c3ccc(F)c(F)c3)c2)CCOCC1 | -19.2
CN1CCC2(CC1)CNC(=O)c1ccccc1O2 | -13.6
Fc1ccc(CN2CCCC(c3nnc(-c4cnccn4)o3)C2)cc1F (configuration not stated) | 0.0269
CC(C)c1ncc(CN2CCCC(CO)C2)cn1 (configuration not stated) | -8.2
CNc1cc(C)nc(C2CN(Cc3cc[nH]n3)CCO2)c1 (configuration not stated) | -7.87
CNc1cc(C)nc(C2CN(Cc3ccc(C)nc3)CCO2)c1 (configuration not stated) | -9.06
O=C(Cc1cccc(F)c1)N1CCCCC1c1ccn2ccnc2n1 (configuration not stated) | 29.6
Cc1ncc(CNC(=O)CCOc2ccccc2)c(C2CCCN2C)n1 (configuration not stated) | -8.4
Cc1nc(CC(=O)N2CCCCC2c2ccn3ccnc3n2)cs1 (configuration not stated) | -12.6
COc1ccc(Cc2cccc(C3CCN(C)CC3)n2)cc1 | -6.68
CN1CCC(c2cccc(Cc3ccc(F)cc3)n2)CC1 | -13.1
Cc1nc(NC2CCCC2)cc(C2CCN2C(=O)c2cccnc2)n1 (configuration not stated) | -9.69
COCCC(=O)N1CCC(c2noc3nc(C)cc(C(F)(F)F)c23)CC1 | -4.96
CCS(=O)(=O)CCSc1ccc(Cl)cc1 | 27
CN(Cc1nc(C(F)(F)F)cs1)C(=O)CCc1cccnc1 | -10.4
Cc1oc(C(=O)Nc2cccc(Cl)c2C)cc1S(N)(=O)=O | 0.43
O=S(=O)(NCCc1ccccc1C(F)(F)F)N1CCOCC1 | 23.1
O=C1CCN(C(=O)NCCCc2ccc(Cl)cc2Cl)CCN1 | -7.65
CS(=O)(=O)CCCC(=O)Nc1cc(-c2cccc(F)c2F)n[nH]1 | -16.7

Structure (SMILES) | cytotoxicity at 70.5 h [%]
COC(=O)c1ccc(S(=O)(=O)N2CCCn3ncnc32)s1 | 0.743
CC(=O)Nc1cc(-c2cccc(F)c2F)n[nH]1 | -5.76
COC(=O)c1ccc(NC(C)c2ccc3c(c2)CCC(=O)N3)nn1 (configuration not stated) | -8.66
CC(C)CC(=O)N(C)Cc1nc(C(F)(F)F)cs1 | -9.65
CC(=O)N1CC(C)CN(C(=O)c2cnccn2)c2ccccc21 (configuration not stated) | -12.2
O=S(=O)(NCCc1ccccc1F)N1CCOCC1 | -3.51
c1cc2c(cc1CSCc1noc(C3CC3)n1)OCCO2 | -13.8
Cc1ccc(S(=O)(=O)NCCc2nnc[nH]2)c2cccnc12 | 15.2
CCOc1nnc(CN2CCN(CCOC)C(CC)C2)s1 (configuration not stated) | 12.8
COCCCN1Cc2cccc(NC(=O)C(C)(C)C)c2C1 | 31.1
CC(CNC1CCN(c2ccccn2)CC1)Oc1ccc(F)cc1 (configuration not stated) | 23.5
CCOc1nnc(CN2CCN(CCOC)C(C)C2)s1 (configuration not stated) | -7.83
Cn1cnc(S(=O)(=O)N2CCCc3cc(F)cc(F)c32)c1Cl | 10.5
Cn1cnc(S(=O)(=O)N2CCCc3cccc(F)c32)c1Cl | -0.174
CC(=O)Nc1ccc(CNCC(O)c2ccccc2)cc1 (configuration not stated) | -2.04
CCN(CC)c1ccc(CNC(=O)N2CCC(C#N)CC2)cc1 | -14.6
Cc1cc(CN(C)C(=O)C(c2ccccc2)N2CCSCC2)no1 (configuration not stated) | 8.49
CC(C)NC(=O)CCNC(=O)CCc1cc(Cl)cs1 | -8.99
N#Cc1cccc(NC(=O)N(CC(F)F)C2CC2)c1 | -2.73
NS(=O)(=O)c1cnn(CC(=O)Nc2c(Cl)cccc2Cl)c1 | -5.76
Cc1cc(OCCC(=O)Nc2cccc(F)c2)nnc1C | 8.29
Cc1nc(C)c(C(C)NCc2c(C)nn(CC(C)C)c2N(C)C)s1 (configuration not stated) | -3.31
CS(=O)(=O)NCCCNC(=O)c1cnc(-c2ccsc2)s1 | -6.18
Cc1cc(OCC(=O)NCc2ccc(F)cc2)nnc1C | -6.01

Structure (SMILES) | cytotoxicity at 70.5 h [%]
O=C(NCCCn1ccccc1=O)c1cnc(-c2ccsc2)s1 | -11.3
COCC(O)CN(C)c1cc(C(F)(F)F)nc(-c2cccnc2)n1 (configuration not stated) | -1.69
Cc1cc(NC(=O)NCc2ccncc2)ccc1OC(C)C | -3.47
Cc1cc(OCCC(=O)NCc2ccc(F)cc2)nnc1C | 0.423
O=C(NCCc1cc(F)ccc1F)NC(CO)c1ccccc1 (configuration not stated) | 19.3
O=C(O)c1cc(/C=C/c2ccc3ccccc3c2)ncn1 | -7.92
CCC1CN(C)c2ccccc2CN1C(=O)CCn1cncn1 (configuration not stated) | -7.82
CCC1CN(C)c2ccccc2CN1CCn1cncn1 (configuration not stated) | -9.88
CC(C)CN(C(=O)Nc1cccnc1)C1CC1 | -7.03
CC(C)COCCNC1CCN(c2ccccn2)CC1 | 0.205
O=C(Nc1cccnc1)N(Cc1ccccc1)C1CC1 | -15.3
Cc1csc(C(C)(C)NCC(=O)N(C)Cc2ccc(C)o2)n1 | 4.78
Cc1ccc(CN(C)C(=O)CNC(C)(C)c2noc(C(C)(C)C)n2)o1 | -0.348
COc1ncnc(N)c1CNCc1ccccc1-n1cccn1 | 6.74
O=C(NCc1ccc(-n2cncn2)nc1)c1cnccn1 | 7.67
O=C(NCc1ccc(-n2cncn2)nc1)c1cc(Cl)ccn1 | 12.5
Cc1csc(N2CCN(Cc3ccccn3)CC2)n1 | -9.56
CCCN(CC(=O)N(C)C)C(=O)c1ccc(-c2nc(C)cs2)cc1 | -6.25
Cc1cccc(COc2ccc(C(C)NS(N)(=O)=O)cc2)c1 (configuration not stated) | -8.27
COc1ccc2c(c1)CCCN(CC(=O)NCC1CCCO1)C2 (configuration not stated) | -5.84
CC(=O)N1CCC(NC(=O)CN2CCCc3c(C)ccc(F)c32)CC1 | -9.21
Cc1ccc(F)c2c1CCCN2CC(=O)NC1CCS(=O)(=O)C1 (configuration not stated) | -4.5
CCc1nnc(C(C)N2CCC(NC(=O)C3CCCCC3)CC2)o1 (configuration not stated) | -7.39
CSc1ncccc1C(=O)Nc1ccc(Cn2ccccc2=O)cc1 | 18.3

Structure (SMILES) | cytotoxicity at 70.5 h [%]
O=C(NCC[S+]([O-])Cc1ccccc1)c1ccc2[nH]c(=O)[nH]c2c1 (configuration not stated) | -3.54
Cc1ccc(CNS(=O)(=O)CCCC#N)cc1F | -4.22
O=C(NCC[S+]([O-])c1ccccc1)c1ccc2[nH]c(=O)[nH]c2c1 (configuration not stated) | -6.4
Cc1cc(CNS(C)(=O)=O)ccc1N(C)C | -7.39
O=C(NCC(O)Cc1ccccc1)c1ccc2[nH]c(=O)[nH]c2c1 (configuration not stated) | -6.14
Cc1cc(C)n(C2CN(CCC(=O)NCCc3ccccc3)C2)n1 | -1.03
CCc1cnc(CNC(=O)NCCc2ccc(O)cc2)s1 | -1.61
CCc1cnc(CNC(=O)NCCCO)s1 | -3.22
O=C(C1CCOC1)N1CCN(CC2CC2)c2ccccc21 (configuration not stated) | -6.39
CCc1c(C(=O)Nc2ccc(F)c(C(=O)NC)c2)cnn1CC(C)C | 0.0762
Cc1ncccc1C(=O)Nc1cccc(Cn2ccccc2=O)c1 | -7.74
Cc1cc(C)nc(NC2CCN(CCOC(C)C)CC2)n1 | 1.5
O=C(C1CCOC1)N1CCN(CC(F)(F)F)c2ccccc21 (configuration not stated) | -5.62
COCCS(=O)(=O)NCc1ccc(N(C)C)c(C)c1 | -7.82
CC(O)CN1CCN(Cc2coc(-c3ccccc3Cl)n2)CC1 (configuration not stated) | -4.11
NC(=O)C1Cc2ccccc2CN1CCC(=O)N1CCc2ccccc21 (configuration not stated) | -6.41
O=C(Cc1ccc2c(c1)CCC2)NC1CCN(Cc2ccccc2)CC1 | 30.6
CC(C)(C)c1noc(CCCC(=O)N2CCNC(=O)C2)n1 | -16.6
CCCNC(=O)CNC(=O)CC1CCCc2cc(OC)ccc21 (configuration not stated) | -6.62
CN(CC(=O)Nc1ccccc1)C(=O)CN(C)c1ccc(Cl)cn1 | -10.4
CN(c1ccc(CNC(=O)c2c[nH]c(=O)c(Cl)c2)cc1)C1CCCCC1 | 5.49
O=C(O)c1cnc2c(cnn2C2CCCC2)c1 | -0.534
Cc1oc(NC(=O)C(C)N2CCN(C(C)(C)CO)CC2)c(C#N)c1C (configuration not stated) | -4.43
CCn1cc(S(=O)(=O)NCC(OC)c2ccccc2)cn1 (configuration not stated) | -3.94

Structure (SMILES) | cytotoxicity at 70.5 h [%]
CC(C)(C)OC(=O)Cn1nc(C2CC2)cc(C(F)(F)F)c1=O | -2.4
Cc1ccc(NC(=O)CN(C)C(=O)c2ccc(-n3cccc3)nc2)nc1 | -1.66
CC(C)NC(=O)CN1CCC2(CC1)OCCO2 | -2.05
COC(=O)CCN(CC1CCOC1)C1CC1 (configuration not stated) | 0.428
CCc1noc(CS(=O)(=O)C(C)c2nc(C3CC3)no2)n1 (configuration not stated) | 13.9
CN(C(=O)c1ccc(Cl)c(S(C)(=O)=O)c1)c1ccccc1 | 0.806
Cc1ccnc(C(NC(=O)c2sc(C)nc2C)C2CC2)n1 (configuration not stated) | -2.09
Cc1ccnc(C(NC(=O)c2ncoc2C)C2CC2)n1 (configuration not stated) | 16.5
COc1ccc(N(C)C(=O)c2cccc(S(C)(=O)=O)c2)cn1 | -3.33
CCOc1ccccc1NC(=O)CN(C)Cc1ccccc1Cl | -0.249
CCN(CC)CC1CCN(Cc2ncc(C(C)(C)C)o2)CC1 | 1.11
COC(=O)C1CN(Cc2nc(-c3ccccc3)cs2)C[C@@H](C)O1 (some centres not stated) | 3.89
CCN(CCS(=O)(=O)c1ccc(Cl)cc1)Cc1ccc(OC)c(OC)c1 | -12.9
CCCn1cc(NC(=O)c2ccc(S(=O)(=O)CC)cc2)ccc1=O | 22.4
CN(Cc1cccc(C(N)=O)c1)c1ncc(C#N)cc1Cl | -9.21
Cn1cc(NC(=O)N2CCN(Cc3cscn3)CC2)ccc1=O | -9.04
CCN(C1CCN(Cc2ncc(C(C)(C)C)o2)CC1)S(C)(=O)=O | -7.94
COC(=O)c1sc2cccc(F)c2c1CNC(=O)C1CC1 | 1.14
O=C(CCC1CCCC1)NCCn1nc(C2CCNC2)c2nccnc21 (configuration not stated) | 34.9
Cc1cccc(COc2ccc(C(C)N)cc2)c1 (configuration not stated) | -4.64
CN(C)c1ccc(CN(CCCn2ccnc2)Cc2c[nH]cn2)cc1 | -13.5
